For orientation: melting point means the temperature of the solid-liquid transition.

Where only a bound is given, the exact number is not on record here.

For `Nc1nc(Cl)cc(Nc2ccccc2)n1` [Compound 1, 6-Chloro-4-(N-phenyl)-2,4-pyrimidinediamine], the melting point lay within 175 to 177 °C.
In the case of `COc1ccccc1Nc1cc(Cl)nc(N)n1` [Compound 2, 6-Chloro-4-(N-(2-methoxy)phenyl)-2,4-pyrimidinediamine] it was 240 to 242 °C.
In turn, `COc1cccc(Nc2cc(Cl)nc(N)n2)c1` [Compound 3, 6-Chloro-4-(N-(3-methoxy)phenyl)-2,4-pyrimidinediamine] returned a melting point of 178 to 180 °C.
Molecule `COc1ccc(Nc2cc(Cl)nc(N)n2)cc1` [Compound 4, 6-Chloro-4-(N-(4-methoxy)phenyl)-2,4-pyrimidinediamine] displayed a melting point of 222 to 223 °C.
Regarding `COc1ccc(OC)c(Nc2cc(Cl)nc(N)n2)c1` [Compound 5, 6-Chloro-4-(N-(2,5-dimethoxy)phenyl)-2,4-pyrimidinediamine], the melting point lay within 182 to 184 °C.
Take `COc1cc(Nc2cc(Cl)nc(N)n2)ccc1C` [Compound 6, 6-Chloro-4-(N-(3-methoxy-4-methyl)phenyl)-2,4-pyrimidinediamine]: the melting point lay in the range of 245 to 247 °C.
For `CCCCOc1ccc(Nc2cc(Cl)nc(N)n2)cc1` [Compound 8, 6-Chloro-4-(N-(4-n-butoxy)phenyl)-2,4-pyrimidinediamine], the melting point is 180 to 182 °C.
Regarding `CCCCCCCCOc1ccc(Nc2cc(Cl)nc(N)n2)cc1` [Compound 9], the melting point was in the range of 185 to 187 °C.
In the case of `Nc1nc(Cl)cc(Nc2ccc(Br)cc2)n1` [Compound 10, 6-Chloro-4-(N-(4-bromo)phenyl)-2,4-pyrimidinediamine] it was 190 to 192 °C.
`Nc1nc(Cl)cc(Nc2cccc(Br)c2)n1` [Compound 11, 6-Chloro-4-(N-(3-bromo)phenyl)-2,4-pyrimidinediamine] came in with a melting point of 180 to 182 °C.
For the molecule `Nc1nc(Cl)cc(Nc2ccc(Cl)cc2)n1` [Compound 12, 6-Chloro-4-(N-(4-chloro)phenyl)-2,4-pyrimidinediamine], the melting point was 182 to 184 °C.
`Nc1nc(Cl)cc(Nc2cccc(Cl)c2)n1` [Compound 13, 6-Chloro-4-(N-(3-chloro)phenyl)-2,4-pyrimidinediamine] displayed a melting point of 177 to 179 °C.
Molecule `Nc1nc(Cl)cc(Nc2ccc(I)cc2)n1` [Compound 14, 6-Chloro-4-(N-(4-iodo)phenyl)-2,4-pyrimidinediamine] returned a melting point of 250 to 252 °C.
`CC(C)c1ccccc1Nc1cc(Cl)nc(N)n1` [Compound 16, 6-Chloro-4-(N-(2-isopropyl)phenyl)-2,4-pyrimidinediamine]: the melting point fell in the range of 170 to 172 °C.
In turn, `Cc1cccc(Nc2cc(Cl)nc(N)n2)c1C` [Compound 17, 6-Chloro-4-(N-(2,3-dimethyl)phenyl)-2,4-pyrimidinediamine] registered a melting point of 176 to 178 °C.
To `Cc1ccc(C)c(Nc2cc(Cl)nc(N)n2)c1` [Compound 18, 6-Chloro-4-(N-(2,5-dimethyl)phenyl)-2,4-pyrimidinediamine] belongs 173 to 175 °C; to `Cc1ccc(Cl)cc1Nc1cc(Cl)nc(N)n1` [Compound 19, 6-Chloro-4-(N-(5-chloro-2-methyl)phenyl)-2,4-pyrimidinediamine], 175 to 177 °C.
Regarding `Cc1ccc(Nc2cc(Cl)nc(N)n2)c(C)c1` [Compound 20, 6-Chloro-4-(N-(2,4-dimethyl)phenyl)-2,4-pyrimidinediamine], the melting point lay within 178 to 180 °C.
Take `Cc1ccc(Nc2cc(Cl)nc(N)n2)cc1C` [Compound 21, 6-Chloro-4-(N-(3,4-dimethyl)phenyl)-2,4-pyrimidinediamine]: the melting point fell in the range of 179 to 180 °C.
In the case of `CCc1ccc(Nc2cc(Cl)nc(N)n2)cc1` [Compound 22, 6-Chloro-4-(N-(4-ethyl)phenyl)-2,4-pyrimidinediamine], the melting point is 172 to 174 °C.
`CCCCc1ccc(Nc2cc(Cl)nc(N)n2)cc1` [Compound 23, 6-Chloro-4-(N-(4-n-butyl)phenyl)-2,4-pyrimidinediamine]: the melting point fell in the range of 175 to 177 °C.
In the case of `Nc1nc(Cl)cc(N2CCNCC2)n1` [Compound 24, 4-Chloro-6-(1-piperazinyl)-2-pyrimidinylamine] it was above 300 °C; in that of `Nc1nc(Cl)cc(N2CCN(c3ccccc3)CC2)n1` [Compound 25, 6-Chloro-6-(4-phenyl-1-piprazinyl)-2-pyrimidine amine], 200 to 202 °C; in that of `Nc1nc(Cl)cc(NCc2cccnc2)n1` [Compound 26, 6-Chloro-4-(N-(3-pyridinyl)methyl)-2,4-pyrimidinediamine], 210 to 212 °C.
`Nc1nc(Cl)cc(NCc2ccco2)n1` [Compound 27, 6-Chloro-4-(N-(furan-2-yl)methyl)-2,4-pyrimidinediamine]: the melting point lay in the range of 140 to 142 °C.

Source of the values: paper PMC9693052, “Synthesis of 2-Aminopyrimidine Derivatives and Their Evaluation as β-Glucuronidase Inhibitors: In Vitro and In Silico Studies” (Molecules, 2022).
